Experimental data: PMC5995184, “Potent anti-leukemic activity of a specific cyclin-dependent kinase 9 inhibitor in mouse models of chronic lymphocytic leukemia” (Oncotarget, 2018)

Experiments:
[1] = biological target: CDK4 (Homo sapiens, UniProt P11802); test: FRET-based LANCE Ultra in vitro enzymatic kinase assay, CDK4; format: biochemical
Protocol: IC50 values for CDK inhibitors were determined using the fluorescence resonance energy transfer (FRET)-based LANCE Ultra KinaSelect Ser/Thr kit (Perkin Elmer). Kinase activity and inhibition were measured according to the manufacturer’s instructions and as previously described. […] FRET signals were recorded in a time-resolved manner in a Perkin Elmer EnVision reader. Purified cyclin-kinase pairs were obtained from the following suppliers: Carna Biosciences (CDK1-Cyclin B1, CDK6-Cyclin D3, CDK7-Cyclin H-MAT1), ProQinase (CDK2-Cyclin A) and Invitrogen (CDK9-Cyclin T1).
Data were analyzed with GraphPad Prism 7 software. Differences were assessed by unpaired or paired Student t tests if not indicated otherwise. Two-sided probabilities of less than 0.05 were considered significant. Nonlinear regression sigmoidal dose-response curve fit was used to determine the IC50 values and to generate graphs.

[2] = system: MEC-1 cells; test: MEC-1 cell line apoptosis, viability, MCL-1/BCL-2 and cell cycle (flow cytometry); format: cell-based
Protocol: The MEC-1 cell line was obtained from the DSMZ (Braunschweig, Germany) and was cultured in RPMI (10% fetal bovine serum). A LDC526 stock solution was prepared with DMSO, diluted and added to the cultures to reach the specified concentrations. Samples (percentage of CD19+CD5+ CLL cells >90%) of n=37 CLL patients (Table 1) and n=6 healthy normal donor controls were used for experiments after obtaining informed consent according to institutional guidelines, approved by the Ethics Commission of the University of Essen-Duisburg. Peripheral blood mononuclear cells (PBMC) were isolated using Lymphoprep ([…] Technologies, Cologne, Germany) density gradient centrifugation and were used directly for NSG transplantation or in vitro experiments. Untouched normal donor B cells were isolated with a B cell isolation kit (Miltenyi, Bergisch Gladbach, Germany) according to the manufacturer’s instructions. For in vitro experiments, cells were maintained in RPMI supplemented with 10% fetal bovine serum, penicillin and streptomycin.
Apoptosis and cell death were determined by using Annexin V (BD Biosciences, Heidelberg, Germany) and 4′,6-Diamidin-2-phenylindol (DAPI, Sigma-Aldrich) staining. Erythrocytes of murine peripheral blood samples were lysed with NH4Cl hypotonic solution. Single cell suspensions of murine spleens were prepared as previously described. Murine cells were stained with antibodies directed against murine CD3 (clone 145-2C11), CD5 (53-7.3) and CD19 (1D3), respectively. For the detection of human cells in NSG spleens antibodies against human CD3 (clone SK7), CD4 (SK3), CD5 (L17F12), CD8 (SK1), CD19 (J3-119 or SJ25C1) and CD45 (2D1) were used (purchased from BD Bioscience, Biolegend and Beckman Coulter). Flow cytometric analysis was carried out on a LSRII flow cytometer (BD Biosciences, Heidelberg, Germany). Flow cytometric data were analyzed with BD FACSDiva or FlowJo software (FLOWJO, LLC, Ashland, OR, USA). Intracellular staining for MCL-1 and BCL-2 (anti-MCL-1 [clone D2W9E, Cell Signaling Technology, Leiden, The Netherlands] and matched isotype control [clone DA1E, Cell Signaling Technology]; anti-BCL-2 [clone Bcl-2/100, BD Bioscience] and matched isotype control [clone MOPC-21, BD Bioscience]) within MEC-1 and primary CLL cells was performed with the FoxP3 / Transcription factor staining buffer set (eBioscience/Thermo Fisher Scientific, Dreieich, Germany) according to the manufacturer’s instructions. Before permeabilization and antibody incubation cells were stained with a fixable viability dye (eFluor 450, eBioscience/Thermo Fisher Scientific). Before adding the anti-MCL-1 and anti-BCL-2 antibodies permeabilized cells were blocked with 2% mouse serum and 2% rabbit serum (Sigma-Aldrich) in permeabilization buffer. Intracellullar murine lymphocyte staining for Bcl-2 was carried out with the BD Cytofix/Cytoperm kit according to the manufacturer’s instructions. A Hamster Anti-mouse Bcl-2 (clone 3F119, BD Biosciences) and a corresponding isotype control (clone A19-3) were used. Dead cells and doublets were excluded by and FSC/SSC gating and positive DAPI or eFluor 450 viability dye staining, respectively. To assess the impact of LDC526 on the cell-cycle status of MEC-1 cells we used the BrdU Flow Kit according to the manufacturer’s protocol (BD Bioscience). […]
Data were analyzed with GraphPad Prism 7 software. Differences were assessed by unpaired or paired Student t tests if not indicated otherwise. […]

Sequence of CDK4 (P11802 whole entry): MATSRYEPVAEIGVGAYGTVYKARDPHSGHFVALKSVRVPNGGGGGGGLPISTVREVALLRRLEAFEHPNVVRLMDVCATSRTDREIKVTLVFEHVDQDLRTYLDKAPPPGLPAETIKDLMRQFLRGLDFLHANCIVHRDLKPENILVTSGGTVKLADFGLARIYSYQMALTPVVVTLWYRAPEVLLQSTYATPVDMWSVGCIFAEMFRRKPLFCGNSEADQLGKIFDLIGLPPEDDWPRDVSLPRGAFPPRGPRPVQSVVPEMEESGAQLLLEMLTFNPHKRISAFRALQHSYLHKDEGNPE
Sequence of CDK4 (P24385 whole entry partner): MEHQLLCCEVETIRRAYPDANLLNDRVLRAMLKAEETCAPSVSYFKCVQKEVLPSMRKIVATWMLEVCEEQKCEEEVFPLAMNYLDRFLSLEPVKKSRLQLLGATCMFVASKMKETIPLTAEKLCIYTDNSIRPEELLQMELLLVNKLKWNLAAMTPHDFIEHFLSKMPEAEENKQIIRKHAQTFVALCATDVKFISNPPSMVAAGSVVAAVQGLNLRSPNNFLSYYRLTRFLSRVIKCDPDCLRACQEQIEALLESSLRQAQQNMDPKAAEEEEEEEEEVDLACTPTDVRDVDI

COc1cc(F)ccc1-c1ncnc(Nc2cccc(CS(N)(=O)=O)c2)n1 [LDC526, (3-((4-(4-fluoro-2-methoxyphenyl)-1,3,5-triazin-2-yl)amino)phenyl)methane-sulfonamide]
selectivity versus CDK9 compared to CDK4 [1]: 291 fold
MEC-1 apoptosis (Annexin V+, DAPI-) ([2]; 4 hours, 500 nM and 1 μM): significantly increased MEC-1 apoptosis
intracellular MCL-1 protein levels in MEC-1 ([2]; 4 hours, increasing concentrations): reduced
MEC-1 S-phase entry (BrdU) ([2]; 24 hours, 10 μM): significantly decreased
MEC-1 cell cycle (BrdU) ([2]; 24 hours, concentrations up to 1 μM): did not alter the cell cycle
IC50 ([2]; Homo sapiens, MEC1, 48 hours incubation, read-out: IC50, MEC-1 absolute viable cell numbers): 550 nM
